Experimental data published in US11945822B2, “Pyrazolo-triazine and/or pyrazolo-pxrimidine derivatives as selective inhibitor of cyclin dependent kinase” (QURIENT CO., LTD., priority 2018, dated 2024).

How the values were obtained:
CDK5/p25 = target: T1, CDK5/p25 (Homo sapiens, UniProt Q00535); assay: Enzymatic assay for CDK5 (FRET based LANCE Ultra kinase assay); type: biochemical; details: read-out: CDK5 enzymatic activity (IC50 range)
T1 construct: purchased Invitrogen PR8543B
In short: (§1)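 Each CDK complex ([…]) phosphorylated 68 nM ULight-MBP peptide with ATP at Km for 60 min at 23° C., against 8 compound doses (4-fold dilutions). EDTA/Eu-anti-phospho-MBP detection, 60 min, then TR-FRET emission at 615 and 665 nm.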

CDK2/Cyclin A = target: T2, CDK2/Cyclin A (Homo sapiens, UniProt P24941); assay: Enzymatic assay for CDK2 (FRET based LANCE Ultra kinase assay); type: biochemical; details: read-out: CDK2 enzymatic activity (IC50 range)
T2 construct: purchased Invitrogen PV6290
In short: as §1

CDK7/Cyclin H/MNAT1 = target: T3, CDK7/Cyclin H/MNAT1 (Homo sapiens, UniProt P50613); assay: Enzymatic assay for CDK7 (FRET based LANCE Ultra kinase assay); type: biochemical; details: for IC50: read-out: CDK7 enzymatic activity (IC50 range)
T3 construct: purchased Invitrogen PR6749B
T3 sequence (P50613 whole entry): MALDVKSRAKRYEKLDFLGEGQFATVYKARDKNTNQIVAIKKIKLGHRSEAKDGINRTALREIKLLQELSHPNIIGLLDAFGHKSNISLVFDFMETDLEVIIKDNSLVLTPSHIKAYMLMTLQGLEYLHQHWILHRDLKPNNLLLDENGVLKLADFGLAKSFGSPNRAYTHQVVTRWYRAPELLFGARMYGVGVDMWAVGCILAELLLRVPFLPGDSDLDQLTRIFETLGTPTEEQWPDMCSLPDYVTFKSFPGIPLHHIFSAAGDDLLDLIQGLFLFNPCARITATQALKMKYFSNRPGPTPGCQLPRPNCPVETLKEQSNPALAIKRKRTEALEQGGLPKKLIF
T3 sequence (P51946 whole entry partner): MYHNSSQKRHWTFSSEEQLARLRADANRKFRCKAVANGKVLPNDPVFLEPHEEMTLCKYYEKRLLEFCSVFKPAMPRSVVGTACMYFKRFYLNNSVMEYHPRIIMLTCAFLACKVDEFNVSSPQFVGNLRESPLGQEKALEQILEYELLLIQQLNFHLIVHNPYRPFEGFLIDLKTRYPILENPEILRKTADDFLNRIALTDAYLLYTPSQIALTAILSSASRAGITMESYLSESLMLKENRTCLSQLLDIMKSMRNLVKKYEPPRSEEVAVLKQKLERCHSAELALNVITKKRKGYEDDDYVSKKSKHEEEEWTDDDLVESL
T3 sequence (P51948 whole entry partner): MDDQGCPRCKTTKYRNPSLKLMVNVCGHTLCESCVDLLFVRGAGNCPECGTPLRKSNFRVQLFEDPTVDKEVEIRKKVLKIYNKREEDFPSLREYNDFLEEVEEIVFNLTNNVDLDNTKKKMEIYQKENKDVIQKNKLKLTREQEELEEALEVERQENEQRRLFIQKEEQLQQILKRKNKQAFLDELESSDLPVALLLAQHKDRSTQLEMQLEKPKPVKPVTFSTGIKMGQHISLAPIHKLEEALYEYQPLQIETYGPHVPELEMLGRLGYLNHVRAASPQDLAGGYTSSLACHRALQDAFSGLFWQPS
In short: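 LANCE Ultra TR-FRET kinase assay using a ULight-labeled peptide substrate and a Eu-labeled anti-phospho antibody, with ATP at its Km. Purified CDK/cyclin complex was added to compound after brief centrifugation.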

H460 = assay: Cellular H460 viability assay (CellTiter-Glo, 72 hours); type: cell-based; details: Homo sapiens, NCI-H460
In short: (§2)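 72 h treatment, 37 °C, 5% CO2; DMSO ctrl, final <0.1%; CellTiter-Glo luminescence; n=2.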

MOLT-4 = assay: Cellular MOLT-4 viability assay (CellTiter-Glo, 72 hours); type: cell-based; details: Homo sapiens, MOLT4 viability assay
Method: All cell lines were routinely tested for mycoplasma.
The effect of the CDK7 inhibitor to inhibit the growth of target cancer cells was evaluated through the 72 hours time period of viability assay. Briefly, the candidate cell line ware plated in 96 well plate at the following density of cells respectively. […] DMSO solvent without compound served as a control and final DMSO concentration less than 0.1%. After 72 hours of incubation at 37° C., 5% CO2 incubator, cells were analyzed for the viability using the CellTiter-Glo Luminescent Cell Viability Assay (Promega, Cat #G7570). All viability assays were performed in duplicate and Luminescence was read using an Envision (Perkin Elmer, USA). Data was analyzed using XLfit software.

CDK1/Cyclin B = target: T4, CDK1/Cyclin B (Homo sapiens, UniProt P06493); assay: Enzymatic assay for CDK1 (FRET based LANCE Ultra kinase assay); type: biochemical; details: read-out: CDK1 enzymatic activity (IC50 range)
T4 construct: purchased Invitrogen PR4768C
T4 sequence (P06493 whole entry): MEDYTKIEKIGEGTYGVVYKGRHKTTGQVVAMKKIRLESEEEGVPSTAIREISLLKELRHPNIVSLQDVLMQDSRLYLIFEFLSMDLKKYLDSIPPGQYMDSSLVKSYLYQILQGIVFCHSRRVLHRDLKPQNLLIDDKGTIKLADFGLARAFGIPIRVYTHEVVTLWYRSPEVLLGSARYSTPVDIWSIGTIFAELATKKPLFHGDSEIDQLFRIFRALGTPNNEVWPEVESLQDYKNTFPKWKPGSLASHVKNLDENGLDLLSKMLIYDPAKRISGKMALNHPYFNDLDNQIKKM
T4 sequence (P14635 whole entry partner): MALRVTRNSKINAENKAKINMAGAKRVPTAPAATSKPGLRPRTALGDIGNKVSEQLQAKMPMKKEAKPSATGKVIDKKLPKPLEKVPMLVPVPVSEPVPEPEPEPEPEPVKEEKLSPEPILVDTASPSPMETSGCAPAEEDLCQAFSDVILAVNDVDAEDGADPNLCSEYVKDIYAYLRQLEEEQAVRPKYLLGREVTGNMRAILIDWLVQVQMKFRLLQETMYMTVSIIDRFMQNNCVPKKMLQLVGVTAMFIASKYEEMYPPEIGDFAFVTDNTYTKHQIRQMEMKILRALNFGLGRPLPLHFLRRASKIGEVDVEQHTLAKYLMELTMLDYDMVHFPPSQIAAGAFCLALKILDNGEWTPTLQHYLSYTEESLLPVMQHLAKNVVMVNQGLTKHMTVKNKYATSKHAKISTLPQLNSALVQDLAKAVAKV
In short: as §1

HCT116 = assay: Cellular HCT116 viability assay (CellTiter-Glo, 72 hours); type: cell-based; details: Homo sapiens, HCT-116
In short: as §2

MV4-11 = assay: Cellular MV4-11 viability assay (CellTiter-Glo, 72 hours); type: cell-based; details: Homo sapiens
In short: as §2

T1 sequence (Q00535 whole entry): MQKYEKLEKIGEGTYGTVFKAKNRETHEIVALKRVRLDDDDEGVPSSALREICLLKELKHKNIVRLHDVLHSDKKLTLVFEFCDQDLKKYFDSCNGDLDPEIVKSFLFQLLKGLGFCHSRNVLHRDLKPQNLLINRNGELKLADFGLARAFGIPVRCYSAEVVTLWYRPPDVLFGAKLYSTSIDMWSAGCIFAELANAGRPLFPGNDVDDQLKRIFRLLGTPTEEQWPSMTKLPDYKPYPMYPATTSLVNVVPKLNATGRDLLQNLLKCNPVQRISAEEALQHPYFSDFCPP
T1 sequence (Q15078 99-307 partner limits assumed): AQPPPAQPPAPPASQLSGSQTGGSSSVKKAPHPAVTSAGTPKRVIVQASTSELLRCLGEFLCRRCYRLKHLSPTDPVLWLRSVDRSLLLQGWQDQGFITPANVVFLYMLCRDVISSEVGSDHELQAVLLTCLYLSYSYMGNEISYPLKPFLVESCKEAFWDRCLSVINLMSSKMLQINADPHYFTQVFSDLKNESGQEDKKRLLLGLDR

IC50 (CDK5/p25) [nM]	IC50 (CDK2/Cyclin A) [nM]	CDK1/CDK7: Selectivity of CDK7 inhibition over CDK1 inhibition (CDK7/Cyclin H/MNAT1)	IC50 (CDK7/Cyclin H/MNAT1) [nM]	IC50 (H460) [nM]	IC50 (MOLT-4) [nM]	IC50 (CDK1/Cyclin B) [nM]	IC50 (HCT116) [nM]	IC50 (MV4-11) [nM]	Structure (SMILES)	CDK2/CDK7: Selectivity of CDK7 inhibition over CDK2 inhibition (CDK7/Cyclin H/MNAT1)	CDK5/CDK7: Selectivity of CDK7 inhibition over CDK5 inhibition (CDK7/Cyclin H/MNAT1)
100 to 1000	100 to 1000	C (C=less than 20 fold)	< 100	1000 to 10000	1000 to 10000	> 1000	> 10000		CCC(O)c1cnn2c(NCc3ccccc3-n3cccn3)nc(N3CCC(N)CC3)nc12 (racemic) [Compound 52]	C (C=less than 20 fold)	C (C=less than 20 fold)
100 to 1000	> 1000	A (A=greater than 200 fold)	< 100	< 1000	> 10000	> 1000		< 1000	CC(=O)N(C)c1ccccc1CNc1nc(N2CCC(N)CC2)nc2c(C(C)C)cnn12 [Compound 64]	A (A=greater than 200 fold)	B (B=less than 200 fold, but greater than 20 fold)
100 to 1000	> 1000	A (A=greater than 200 fold)	< 100	1000 to 10000	1000 to 10000	> 1000			Cc1ccc(-n2cccn2)cc1CNc1nc(N2CCC(N)CC2)nc2c(C(C)C)cnn12 [Compound 75]	B (B=less than 200 fold, but greater than 20 fold)	B (B=less than 200 fold, but greater than 20 fold)

The next lines start with the molecule.

Structure (SMILES)	IC50 (CDK5/p25) [nM]	IC50 (CDK2/Cyclin A) [nM]	CDK1/CDK7: Selectivity of CDK7 inhibition over CDK1 inhibition (CDK7/Cyclin H/MNAT1)	IC50 (CDK7/Cyclin H/MNAT1) [nM]	IC50 (H460) [nM]	IC50 (MOLT-4) [nM]	IC50 (CDK1/Cyclin B) [nM]	IC50 (HCT116) [nM]	IC50 (MV4-11) [nM]	CDK2/CDK7: Selectivity of CDK7 inhibition over CDK2 inhibition (CDK7/Cyclin H/MNAT1)	CDK5/CDK7: Selectivity of CDK7 inhibition over CDK5 inhibition (CDK7/Cyclin H/MNAT1)
CC(C)c1cnn2c(NCc3ccccc3-n3cccn3)cc(N3CCC(N)CC3)nc12 [Compound 1]	100 to 1000	> 1000	B (B=less than 200 fold, but greater than 20 fold)	< 100	< 1000	1000 to 10000	> 1000	1000 to 10000		B (B=less than 200 fold, but greater than 20 fold)	C (C=less than 20 fold)
CC(C)c1cnn2c(NCc3ccccc3-n3cccn3)nc(N3CCN(C)CC3)nc12 [Compound 3]	100 to 1000	> 1000	A (A=greater than 200 fold)	< 100	1000 to 10000	> 10000	> 1000			B (B=less than 200 fold, but greater than 20 fold)	B (B=less than 200 fold, but greater than 20 fold)
CC(C)c1cnn2c(NCc3cccc4cccnc34)nc(N3CCC(N)CC3)nc12 [Compound 9]	< 100	100 to 1000	B (B=less than 200 fold, but greater than 20 fold)	< 100	< 1000	1000 to 10000	100 to 1000			B (B=less than 200 fold, but greater than 20 fold)	C (C=less than 20 fold)
CC(C)c1cnn2c(NCc3ccccc3-n3cccn3)nc(NC3CCNCC3)nc12 [Compound 40]	100 to 1000	100 to 1000	A (A=greater than 200 fold)	< 100	< 1000	> 10000	> 1000		< 1000	B (B=less than 200 fold, but greater than 20 fold)	C (C=less than 20 fold)
CC(C)c1cnn2c(NCc3ccccc3NC3CCN(C)CC3)nc(N3CCC(N)CC3)nc12 [Compound 49]					1000 to 10000	1000 to 10000		1000 to 10000			
CC(C)c1cnn2c(NCc3cccc(NC(=O)c4ccccc4)c3)nc(N3CCC(N)CC3)nc12 [Compound 50]					< 1000	1000 to 10000		1000 to 10000			
CC(C)c1cnn2c(NCc3ccccc3N(C)C3CCN(C)CC3)nc(N3CCC(N)CC3)nc12 [Compound 53]					< 1000	1000 to 10000		1000 to 10000			
CCCc1ccccc1CNc1nc(N2CCC(N)CC2)nc2c(C(C)C)cnn12 [Compound 55]	100 to 1000	100 to 1000	B (B=less than 200 fold, but greater than 20 fold)	< 100	1000 to 10000	1000 to 10000	100 to 1000			B (B=less than 200 fold, but greater than 20 fold)	C (C=less than 20 fold)
CC(C)c1cnn2c(NCc3ccccc3OCc3ccccc3)nc(N3CCC(N)CC3)nc12 [Compound 57]	100 to 1000	> 1000	A (A=greater than 200 fold)	< 100	1000 to 10000	1000 to 10000	> 1000			A (A=greater than 200 fold)	B (B=less than 200 fold, but greater than 20 fold)
CN(C)c1cnn2c(NCc3ccccc3-n3cccn3)nc(N3CCC(N)CC3)nc12 [Compound 60]					< 1000	> 10000					
CC(C)c1cnn2c(NCc3ccsc3-n3cccn3)nc(N3CCC(N)CC3)nc12 [Compound 62]	< 100	100 to 1000	B (B=less than 200 fold, but greater than 20 fold)	< 100	< 1000	1000 to 10000	100 to 1000			B (B=less than 200 fold, but greater than 20 fold)	C (C=less than 20 fold)
CC(C)c1cnn2c(NCc3ccccc3-n3ccc4ccccc43)nc(N3CCC(N)CC3)nc12 [Compound 68]					< 1000	1000 to 10000					
CC(C)c1cnn2c(NCc3cccc(NC(=O)c4cccc(NC(=O)CCCN(C)C)c4)c3)nc(N3CCC(N)CC3)nc12 [Compound 70]	100 to 1000	100 to 1000	A (A=greater than 200 fold)	< 100	1000 to 10000	> 10000	> 1000			B (B=less than 200 fold, but greater than 20 fold)	B (B=less than 200 fold, but greater than 20 fold)
CC(C)c1cnn2c(NCc3ccccc3Oc3ccc4ccccc4n3)nc(N3CCC(N)CC3)nc12 [Compound 74]	100 to 1000	> 1000	B (B=less than 200 fold, but greater than 20 fold)	< 100	1000 to 10000	> 10000	> 1000			B (B=less than 200 fold, but greater than 20 fold)	B (B=less than 200 fold, but greater than 20 fold)
CC(C)c1cnn2c(NCc3ccccc3-n3cccn3)nc(-c3ccc(Cl)c(OC4CCNCC4)c3)nc12 [Compound 173]	100 to 1000	> 1000	A (A=greater than 200 fold)	< 100	1000 to 10000	1000 to 10000	> 1000			B (B=less than 200 fold, but greater than 20 fold)	B (B=less than 200 fold, but greater than 20 fold)
